Results published in ChEMBL document CHEMBL4052759, “Discovery of DS79182026: A potent orally active hepcidin production inhibitor” (Bioorg Med Chem Lett, 2017).

Assays:
[1] = target: Rho-associated protein kinase 1 (Homo sapiens) (UniProt Q13464); assay: Inhibition of ROCK1 (unknown origin) at 0.49 uM relative to control
[2] = target: NUAK family SNF1-like kinase 1 (Homo sapiens) (UniProt O60285); assay: Inhibition of NuaK1 (unknown origin) at 0.49 uM relative to control
[3] = system: Fibroblast growth factor receptor 2 (Homo sapiens), P21802 [N549H]; assay: Inhibition of FGFR2 N549H mutant (unknown origin) at 0.49 uM
[4] = target: MAP kinase-interacting serine/threonine-protein kinase 2 (Homo sapiens) (UniProt Q9HBH9); assay: Inhibition of MNK2 (unknown origin) at 0.49 uM relative to control
[5] = target: AMP-activated protein kinase, AMPK (Homo sapiens) (UniProt P54646+O43741+P54619+Q9UGJ0+Q9Y478+Q13131+Q9UGI9); assay: Inhibition of AMPK (unknown origin) at 0.49 uM relative to control
[6] = target: Cyclin-dependent kinase 3 (Homo sapiens) (UniProt Q00526); assay: Inhibition of CDK3 (unknown origin) at 0.49 uM relative to control
[7] = target: Proto-oncogene tyrosine-protein kinase receptor Ret (Homo sapiens) (UniProt P07949); assay: Inhibition of RET (unknown origin) at 0.49 uM relative to control
[8] = target: Serine/threonine-protein kinase BRSK1 (Homo sapiens) (UniProt Q8TDC3); assay: Inhibition of BRSK1 (unknown origin) at 0.45 uM relative to control
[9] = target: Fibroblast growth factor receptor 4 (Homo sapiens) (UniProt P22455); assay: Inhibition of FGFR4 (unknown origin) at 0.45 uM relative to control
[10] = system: Proto-oncogene tyrosine-protein kinase receptor Ret (Homo sapiens), P07949 [V804L]; assay: Inhibition of Ret V804L mutant (unknown origin) at 0.45 uM relative to control
[11] = target: Serine/threonine-protein kinase MARK2 (Homo sapiens) (UniProt Q7KZI7); assay: Inhibition of MARK2 (unknown origin) at 0.45 uM relative to control
[12] = target: Ephrin type-B receptor 4 (Homo sapiens) (UniProt P54760); assay: Inhibition of EPHB4 (unknown origin) at 0.45 uM relative to control
[13] = target: Ribosomal protein S6 kinase alpha-6 (Homo sapiens) (UniProt Q9UK32); assay: Inhibition of RSK4 (unknown origin) at 0.45 uM relative to control
[14] = system: Platelet-derived growth factor receptor alpha (Homo sapiens), P16234 [V561D]; assay: Inhibition of PDGFRA V561D mutant (unknown origin) at 0.45 uM relative to control
[15] = target: T1, Calcium/calmodulin-dependent protein kinase type IV (Homo sapiens) (UniProt Q16566); assay: Inhibition of CAMK4 (unknown origin) at 0.078 uM relative to control
T1 sequence (whole entry): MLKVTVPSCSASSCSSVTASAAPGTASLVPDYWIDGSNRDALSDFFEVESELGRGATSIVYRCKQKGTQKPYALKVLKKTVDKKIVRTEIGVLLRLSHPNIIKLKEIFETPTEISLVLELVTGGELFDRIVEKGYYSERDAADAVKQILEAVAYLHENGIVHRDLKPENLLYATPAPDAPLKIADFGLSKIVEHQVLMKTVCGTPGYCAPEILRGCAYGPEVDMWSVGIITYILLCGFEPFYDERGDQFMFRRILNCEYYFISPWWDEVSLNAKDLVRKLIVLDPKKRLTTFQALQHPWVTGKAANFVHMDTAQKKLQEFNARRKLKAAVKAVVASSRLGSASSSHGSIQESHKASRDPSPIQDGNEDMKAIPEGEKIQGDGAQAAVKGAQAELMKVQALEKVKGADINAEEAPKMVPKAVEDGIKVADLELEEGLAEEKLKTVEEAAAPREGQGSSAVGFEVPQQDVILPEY

[16] = target: Serine/threonine-protein kinase MARK1 (Homo sapiens) (UniProt Q9P0L2); assay: Inhibition of MARK1 (unknown origin) at 0.078 uM relative to control
[17] = target: T2, cGMP-dependent protein kinase 1 (Homo sapiens) (UniProt Q13976); assay: Inhibition of PKG-alpha (unknown origin) at 0.078 uM relative to control
T2 sequence (whole entry): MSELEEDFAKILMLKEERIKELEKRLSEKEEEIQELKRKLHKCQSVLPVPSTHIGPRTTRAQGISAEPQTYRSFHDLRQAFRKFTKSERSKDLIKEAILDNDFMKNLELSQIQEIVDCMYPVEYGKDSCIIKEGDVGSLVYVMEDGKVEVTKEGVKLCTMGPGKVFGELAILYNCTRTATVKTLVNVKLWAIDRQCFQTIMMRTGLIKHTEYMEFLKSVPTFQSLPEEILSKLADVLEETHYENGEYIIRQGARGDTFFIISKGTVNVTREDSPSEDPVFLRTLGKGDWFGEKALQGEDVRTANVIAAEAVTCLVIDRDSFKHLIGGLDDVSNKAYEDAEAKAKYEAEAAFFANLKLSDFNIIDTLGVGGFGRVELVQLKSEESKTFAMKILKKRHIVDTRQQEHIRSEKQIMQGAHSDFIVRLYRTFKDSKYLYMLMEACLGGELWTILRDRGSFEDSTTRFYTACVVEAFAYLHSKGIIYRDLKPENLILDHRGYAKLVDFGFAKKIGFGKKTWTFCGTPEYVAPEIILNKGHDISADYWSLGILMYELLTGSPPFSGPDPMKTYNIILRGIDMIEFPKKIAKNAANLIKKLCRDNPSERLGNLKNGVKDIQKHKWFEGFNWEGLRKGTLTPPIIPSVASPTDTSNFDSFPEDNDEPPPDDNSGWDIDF

[18] = target: Receptor-type tyrosine-protein kinase FLT3 (Homo sapiens) (UniProt P36888); assay: Inhibition of FLT3 (unknown origin) at 0.078 uM relative to control
[19] = Oral bioavailability in C57BL/6J mouse at 30 mg/kg by LC-MS/MS analysis; format: ADME, organism-based; conditions: in vivo

Sequence of Platelet-derived growth factor receptor alpha (Homo sapiens), P16234 [V561D] (P16234 whole entry V561D): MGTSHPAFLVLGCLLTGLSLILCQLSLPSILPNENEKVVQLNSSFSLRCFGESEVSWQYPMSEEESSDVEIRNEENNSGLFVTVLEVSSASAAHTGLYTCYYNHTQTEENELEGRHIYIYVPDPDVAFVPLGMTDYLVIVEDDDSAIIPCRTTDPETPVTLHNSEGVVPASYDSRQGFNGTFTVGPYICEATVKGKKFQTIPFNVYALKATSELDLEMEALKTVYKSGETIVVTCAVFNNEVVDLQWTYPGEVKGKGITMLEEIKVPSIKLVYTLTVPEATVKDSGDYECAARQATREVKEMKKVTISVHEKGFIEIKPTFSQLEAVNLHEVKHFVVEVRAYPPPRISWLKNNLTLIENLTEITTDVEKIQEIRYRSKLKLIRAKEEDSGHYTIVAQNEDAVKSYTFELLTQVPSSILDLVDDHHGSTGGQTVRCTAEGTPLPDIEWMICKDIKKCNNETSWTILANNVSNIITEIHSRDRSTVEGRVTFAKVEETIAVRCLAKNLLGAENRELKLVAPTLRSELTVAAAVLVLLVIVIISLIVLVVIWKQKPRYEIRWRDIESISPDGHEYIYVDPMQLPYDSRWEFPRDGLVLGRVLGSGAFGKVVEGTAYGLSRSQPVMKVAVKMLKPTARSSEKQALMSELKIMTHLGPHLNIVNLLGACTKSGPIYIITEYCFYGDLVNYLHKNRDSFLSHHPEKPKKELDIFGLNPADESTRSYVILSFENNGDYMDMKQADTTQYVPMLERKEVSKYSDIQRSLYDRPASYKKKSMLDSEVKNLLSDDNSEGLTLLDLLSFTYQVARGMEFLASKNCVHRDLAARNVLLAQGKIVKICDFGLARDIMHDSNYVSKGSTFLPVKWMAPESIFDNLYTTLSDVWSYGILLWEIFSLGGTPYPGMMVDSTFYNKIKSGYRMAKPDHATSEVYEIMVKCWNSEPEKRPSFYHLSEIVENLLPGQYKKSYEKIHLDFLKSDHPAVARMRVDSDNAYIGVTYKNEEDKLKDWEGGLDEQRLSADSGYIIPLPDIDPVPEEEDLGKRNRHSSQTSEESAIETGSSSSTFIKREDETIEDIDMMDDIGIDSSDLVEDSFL
Sequence of Serine/threonine-protein kinase MARK1 (Homo sapiens) (Q9P0L2 whole entry, looked up): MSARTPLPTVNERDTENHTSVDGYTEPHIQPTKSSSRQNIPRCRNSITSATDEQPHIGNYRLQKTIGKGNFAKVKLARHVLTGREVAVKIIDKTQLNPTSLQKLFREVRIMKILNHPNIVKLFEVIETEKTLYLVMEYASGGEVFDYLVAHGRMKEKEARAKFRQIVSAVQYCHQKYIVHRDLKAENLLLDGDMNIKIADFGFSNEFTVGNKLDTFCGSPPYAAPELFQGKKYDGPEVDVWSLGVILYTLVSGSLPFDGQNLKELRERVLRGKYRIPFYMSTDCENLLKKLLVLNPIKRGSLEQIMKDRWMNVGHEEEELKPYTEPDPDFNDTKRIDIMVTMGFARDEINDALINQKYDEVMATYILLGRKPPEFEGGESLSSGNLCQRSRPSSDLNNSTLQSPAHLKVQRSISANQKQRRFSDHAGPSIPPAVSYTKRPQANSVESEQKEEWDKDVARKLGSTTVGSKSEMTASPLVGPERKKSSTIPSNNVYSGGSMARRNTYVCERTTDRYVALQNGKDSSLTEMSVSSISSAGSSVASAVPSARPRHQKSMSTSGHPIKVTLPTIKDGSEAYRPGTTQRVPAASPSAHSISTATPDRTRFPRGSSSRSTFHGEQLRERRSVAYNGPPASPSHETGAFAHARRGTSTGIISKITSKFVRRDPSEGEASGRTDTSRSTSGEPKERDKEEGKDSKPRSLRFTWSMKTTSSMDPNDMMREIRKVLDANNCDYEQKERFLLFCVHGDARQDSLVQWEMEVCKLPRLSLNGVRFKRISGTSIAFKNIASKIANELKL
Sequence of Ribosomal protein S6 kinase alpha-6 (Homo sapiens) (Q9UK32 whole entry): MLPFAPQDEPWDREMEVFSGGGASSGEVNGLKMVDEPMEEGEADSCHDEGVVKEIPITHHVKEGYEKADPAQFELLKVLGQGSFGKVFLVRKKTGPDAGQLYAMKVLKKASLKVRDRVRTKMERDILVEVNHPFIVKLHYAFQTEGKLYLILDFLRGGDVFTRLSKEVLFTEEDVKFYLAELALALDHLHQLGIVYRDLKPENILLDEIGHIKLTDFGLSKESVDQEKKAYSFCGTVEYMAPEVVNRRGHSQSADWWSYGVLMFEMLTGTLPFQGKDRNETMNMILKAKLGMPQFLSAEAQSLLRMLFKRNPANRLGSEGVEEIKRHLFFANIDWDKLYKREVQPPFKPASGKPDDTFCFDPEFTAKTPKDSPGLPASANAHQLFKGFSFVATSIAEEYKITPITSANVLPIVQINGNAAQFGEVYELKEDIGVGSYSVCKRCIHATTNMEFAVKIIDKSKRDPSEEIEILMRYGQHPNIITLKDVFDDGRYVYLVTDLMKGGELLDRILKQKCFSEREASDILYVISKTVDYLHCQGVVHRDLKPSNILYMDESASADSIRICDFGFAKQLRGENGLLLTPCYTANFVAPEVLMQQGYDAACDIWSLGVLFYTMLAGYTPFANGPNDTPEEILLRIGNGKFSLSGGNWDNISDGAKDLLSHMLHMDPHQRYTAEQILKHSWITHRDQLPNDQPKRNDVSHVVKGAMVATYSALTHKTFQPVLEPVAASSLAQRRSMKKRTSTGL
Sequence of MAP kinase-interacting serine/threonine-protein kinase 2 (Homo sapiens) (Q9HBH9 whole entry, looked up): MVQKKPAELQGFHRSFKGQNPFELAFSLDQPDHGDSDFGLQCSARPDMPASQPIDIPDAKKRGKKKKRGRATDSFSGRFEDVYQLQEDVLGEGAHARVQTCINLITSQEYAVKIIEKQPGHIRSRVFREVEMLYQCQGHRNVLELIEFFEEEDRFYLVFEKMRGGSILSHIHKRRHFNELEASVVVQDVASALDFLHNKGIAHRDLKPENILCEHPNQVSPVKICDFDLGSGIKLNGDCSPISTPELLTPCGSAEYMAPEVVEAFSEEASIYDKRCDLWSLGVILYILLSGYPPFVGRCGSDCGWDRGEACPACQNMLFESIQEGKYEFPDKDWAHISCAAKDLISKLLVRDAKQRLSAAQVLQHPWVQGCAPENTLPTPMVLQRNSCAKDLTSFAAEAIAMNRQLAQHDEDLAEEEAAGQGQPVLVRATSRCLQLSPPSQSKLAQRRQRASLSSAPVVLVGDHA
Sequence of Proto-oncogene tyrosine-protein kinase receptor Ret (Homo sapiens) (P07949 whole entry): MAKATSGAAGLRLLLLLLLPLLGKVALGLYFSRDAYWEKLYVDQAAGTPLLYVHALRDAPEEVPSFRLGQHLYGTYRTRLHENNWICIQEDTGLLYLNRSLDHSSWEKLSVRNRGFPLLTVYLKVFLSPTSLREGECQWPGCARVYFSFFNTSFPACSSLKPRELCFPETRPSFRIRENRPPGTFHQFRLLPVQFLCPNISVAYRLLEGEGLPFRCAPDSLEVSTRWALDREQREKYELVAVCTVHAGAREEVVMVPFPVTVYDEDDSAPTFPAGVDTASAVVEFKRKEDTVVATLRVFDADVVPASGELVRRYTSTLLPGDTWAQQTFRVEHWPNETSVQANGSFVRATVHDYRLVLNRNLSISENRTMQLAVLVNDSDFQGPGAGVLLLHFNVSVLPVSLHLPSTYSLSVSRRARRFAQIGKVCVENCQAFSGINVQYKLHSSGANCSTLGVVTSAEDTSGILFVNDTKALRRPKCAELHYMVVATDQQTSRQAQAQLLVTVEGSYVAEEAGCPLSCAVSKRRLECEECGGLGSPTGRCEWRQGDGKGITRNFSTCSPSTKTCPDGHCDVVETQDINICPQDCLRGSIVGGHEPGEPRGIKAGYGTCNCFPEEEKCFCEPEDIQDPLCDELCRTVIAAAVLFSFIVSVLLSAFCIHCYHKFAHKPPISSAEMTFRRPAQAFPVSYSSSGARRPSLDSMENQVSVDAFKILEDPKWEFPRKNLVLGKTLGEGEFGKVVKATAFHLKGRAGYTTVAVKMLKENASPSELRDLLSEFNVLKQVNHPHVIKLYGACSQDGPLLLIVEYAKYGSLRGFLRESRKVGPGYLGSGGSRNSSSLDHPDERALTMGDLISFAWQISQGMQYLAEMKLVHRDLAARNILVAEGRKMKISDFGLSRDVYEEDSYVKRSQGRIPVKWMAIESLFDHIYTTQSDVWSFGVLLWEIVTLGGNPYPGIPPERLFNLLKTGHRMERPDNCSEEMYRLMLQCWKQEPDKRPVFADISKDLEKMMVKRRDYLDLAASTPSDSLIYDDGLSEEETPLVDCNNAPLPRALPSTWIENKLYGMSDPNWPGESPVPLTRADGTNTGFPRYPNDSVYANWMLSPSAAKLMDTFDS
Sequence of Serine/threonine-protein kinase MARK2 (Homo sapiens) (Q7KZI7 whole entry): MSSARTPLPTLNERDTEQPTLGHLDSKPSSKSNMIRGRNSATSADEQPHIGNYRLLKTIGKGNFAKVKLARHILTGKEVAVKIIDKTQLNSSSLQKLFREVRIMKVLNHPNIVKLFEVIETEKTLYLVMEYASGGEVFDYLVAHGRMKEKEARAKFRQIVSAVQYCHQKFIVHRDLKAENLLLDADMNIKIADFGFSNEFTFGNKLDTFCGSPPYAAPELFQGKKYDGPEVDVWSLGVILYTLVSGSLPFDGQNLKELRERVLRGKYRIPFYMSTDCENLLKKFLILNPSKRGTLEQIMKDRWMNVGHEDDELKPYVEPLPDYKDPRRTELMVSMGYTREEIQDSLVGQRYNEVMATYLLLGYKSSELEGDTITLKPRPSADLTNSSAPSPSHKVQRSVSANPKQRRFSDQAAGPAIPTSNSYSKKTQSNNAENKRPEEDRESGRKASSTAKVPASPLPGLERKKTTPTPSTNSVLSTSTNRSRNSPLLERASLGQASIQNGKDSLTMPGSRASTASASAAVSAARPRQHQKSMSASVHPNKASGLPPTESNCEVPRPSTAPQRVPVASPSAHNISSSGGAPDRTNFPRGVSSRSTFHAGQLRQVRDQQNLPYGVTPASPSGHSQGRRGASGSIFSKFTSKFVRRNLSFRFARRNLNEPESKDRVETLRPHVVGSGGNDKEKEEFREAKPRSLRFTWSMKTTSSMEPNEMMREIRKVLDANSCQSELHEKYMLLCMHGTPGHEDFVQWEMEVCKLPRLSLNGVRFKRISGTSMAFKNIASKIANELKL
Sequence of Proto-oncogene tyrosine-protein kinase receptor Ret (Homo sapiens), P07949 [V804L] (P07949 whole entry V804L): as the sequence (P07949 whole entry) above, with V804L counted along it

Cc1[nH]nc(C2CC2)c1-c1ccc2c(NC(=O)C3CC3)noc2c1
inhibition [1]: 1% | inhibition [2]: 5.7% | inhibition [3]: 0% | inhibition [4]: -1.7% | inhibition [5]: 2% | inhibition [6]: 3.3% | inhibition [7]: 15%

Cc1n[nH]c(C)c1-c1ccc2c(NC(=O)c3ccc(N4CCN(C)CC4)cc3)n[nH]c2c1
inhibition [8]: 14% | inhibition [9]: 0.7% | inhibition [10]: 21.3% | inhibition [11]: 35% | inhibition [12]: 8% | inhibition [13]: 50.7% | inhibition [14]: 30%

COC(=O)Nc1noc2cc(-c3c(-c4ccccn4)n[nH]c3C)ccc12
inhibition [15]: 6.7% | inhibition [16]: 3.3% | inhibition [17]: -3.3% | inhibition [18]: -0.3% | bioavailability [19]: 100%
